Molecular target: T1, Recombinant human FLT3 (Homo sapiens, UniProt P36888)
T1 construct: His6 (C)
T1 sequence (P36888 27-993): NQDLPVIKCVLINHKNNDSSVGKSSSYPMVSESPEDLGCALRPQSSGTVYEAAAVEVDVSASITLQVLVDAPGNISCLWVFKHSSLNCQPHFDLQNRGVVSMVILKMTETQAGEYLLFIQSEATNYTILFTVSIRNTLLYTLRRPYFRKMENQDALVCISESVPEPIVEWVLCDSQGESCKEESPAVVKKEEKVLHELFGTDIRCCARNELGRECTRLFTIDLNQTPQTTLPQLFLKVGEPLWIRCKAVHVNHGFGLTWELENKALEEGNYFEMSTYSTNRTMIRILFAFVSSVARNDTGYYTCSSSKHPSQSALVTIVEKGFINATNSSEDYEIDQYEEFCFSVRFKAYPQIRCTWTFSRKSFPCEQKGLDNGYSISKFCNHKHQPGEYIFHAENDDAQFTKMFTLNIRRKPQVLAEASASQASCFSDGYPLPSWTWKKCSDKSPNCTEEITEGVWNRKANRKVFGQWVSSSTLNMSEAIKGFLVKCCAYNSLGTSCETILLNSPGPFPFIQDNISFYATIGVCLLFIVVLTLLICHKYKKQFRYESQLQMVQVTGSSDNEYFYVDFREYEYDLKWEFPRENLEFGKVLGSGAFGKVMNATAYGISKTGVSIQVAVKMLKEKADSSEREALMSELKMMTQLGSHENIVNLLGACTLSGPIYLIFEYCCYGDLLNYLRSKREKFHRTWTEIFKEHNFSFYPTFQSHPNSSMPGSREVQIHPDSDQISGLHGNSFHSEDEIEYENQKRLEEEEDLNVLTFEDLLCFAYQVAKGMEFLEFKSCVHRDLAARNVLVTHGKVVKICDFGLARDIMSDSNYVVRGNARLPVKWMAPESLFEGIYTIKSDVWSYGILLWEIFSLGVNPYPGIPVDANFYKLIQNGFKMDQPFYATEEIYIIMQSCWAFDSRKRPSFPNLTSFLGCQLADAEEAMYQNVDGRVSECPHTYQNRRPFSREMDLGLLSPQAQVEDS
Assay: Flt3 kinase inhibitory assay (radioisotope filtration binding, 33P-ATP)
Type: biochemical
Settings: read-out: Flt3 inhibition IC50
Experimental: The assay is performed using traditional radioisotope filtration binding.
A base reaction buffer is prepared consisting of 20 mM Hepes (pH 7.5), 10 mM MgCl2, 1 mM EGTA, 0.02% Brij35, 0.02 mg/ml BSA, 0.1 mM […], 2 mM DTT, 1% DMSO. The peptide substrate abltide [[…]] is added to the base reaction buffer to yield a final concentration of 5 μM. Additional cofactors (1.5 mM CaCl2, 16 ug/ml Calmodulin, and 2 mM MnCl2) are added to the buffer/substrate solution. Recombinant human FLT3 (baculovirus expression system using a C-terminal His6-tag) is added to the solution and gently mixed. Test compounds are dissolved in DMSO and added to the buffer/kinase solution to yield a final concentration of 5 μM. […] The reaction is initiated by the addition of ^33P-ATP (specific activity […]) into the reaction mixture to a final concentration of 10 μM. The kinase reaction was incubated for 120 minutes at room temperature. The reactions are spotted onto P81 ion exchange paper (Whatman #3698-915) and the filter papers are extensively washed in 0.75% Phosphoric acid and beta emissions are measured.

SMILES	IC50 [nM]
c1cc(-c2cn3cc(Nc4cc(CN5CCCC5)ccn4)nc3cn2)ccn1 [Compound 101]	0.11
c1cc(-c2ccc3nc(Nc4cc(CN5CCCC5)ccn4)cn3n2)ccn1 [Compound 102]	0.25

Reference: patent publication US11858938B2, “Imidazo-fused heterocycles and uses thereof” (Ligand Pharmaceuticals Incorporated, priority 2015, dated 2024)
